Measurements as given in the NIST ThermoML archive (doi:10.1016/j.fluid.2012.12.001).

Test: an = ratio of the nth substance listed
Conditions: for viscosity / mass density: 101 kPa, Liquid; for viscosity: Capillary tube (Ostwald / Ubbelohde) method; for mass density: Vibrating tube method; for surface tension liquid-gas: Capillary rise

CC(O)C(=O)O (centres undefined) [2-hydroxypropanoic acid] + C[N+](C)(C)CCO.[Cl-]
Conditions | mass density [kg/m3] | surface tension liquid-gas [mN/m] | viscosity [mPa·s]
298.15 K, a1 = 1.3 | 1166.3 | – | 722.55
298.15 K, a1 = 1.5 | 1174.9 | – | 615.62
298.15 K, a1 = 2 | 1179.3 | – | 536.28
298.15 K, a1 = 2.5 | 1184.7 | – | 494.73
298.15 K, a1 = 3 | 1189.3 | – | 437.53
298.15 K, a1 = 3.5 | 1193.2 | – | 418.14
298.15 K, a1 = 5 | 1200.6 | – | 378.56
298.15 K, a1 = 8 | 1208 | – | 341.27
298.15 K, a1 = 10 | 1211.3 | – | 321.5
298.15 K, a1 = 15 | 1173.2 | – | 226.94
298.2 K, a1 = 2 | – | 48 | –
303.15 K, a1 = 1.3 | 1163.1 | – | 508.17
303.15 K, a1 = 1.5 | 1171.4 | – | 428.98
303.15 K, a1 = 2 | 1175.8 | – | 370.38
303.15 K, a1 = 2.5 | 1181.1 | – | 341.17
303.15 K, a1 = 3 | 1185.6 | – | 300.21
303.15 K, a1 = 3.5 | 1189.4 | – | 285.25
303.15 K, a1 = 5 | 1196.7 | – | 254.91
303.15 K, a1 = 8 | 1204 | – | 226.58
303.15 K, a1 = 10 | 1207.1 | – | 213.35
303.15 K, a1 = 15 | 1207.1 | – | 163.42
303.3 K, a1 = 2 | – | 47.6 | –
308.15 K, a1 = 1.3 | 1160 | – | 364.59
308.15 K, a1 = 1.5 | 1168.2 | – | 304.96
308.15 K, a1 = 2 | 1172.5 | – | 263.28
308.15 K, a1 = 2.5 | 1177.7 | – | 241.21
308.15 K, a1 = 3 | 1182.1 | – | 211.64
308.15 K, a1 = 3.5 | 1185.9 | – | 200.01
308.15 K, a1 = 5 | 1193 | – | 176.99
308.15 K, a1 = 8 | 1200.1 | – | 155.91
308.15 K, a1 = 10 | 1203 | – | 146.37
308.15 K, a1 = 15 | 1203 | – | 146.37
308.3 K, a1 = 2 | – | 47.3 | –
313.15 K, a1 = 1.3 | 1157 | – | 267.49
313.15 K, a1 = 1.5 | 1165 | – | 222.55
313.15 K, a1 = 2 | 1169.3 | – | 191.68
313.15 K, a1 = 2.5 | 1174.4 | – | 174.9
313.15 K, a1 = 3 | 1178.6 | – | 153.04
313.15 K, a1 = 3.5 | 1182.3 | – | 144.01
313.15 K, a1 = 5 | 1189.3 | – | 126.42
313.15 K, a1 = 8 | 1196.2 | – | 110.53
313.15 K, a1 = 10 | 1199 | – | 103.52
313.15 K, a1 = 15 | 1199 | – | 103.52
313.5 K, a1 = 2 | – | 47 | –
318.15 K, a1 = 1.3 | 1154 | – | 200.31
318.15 K, a1 = 1.5 | 1161.9 | – | 165.87
318.15 K, a1 = 2 | 1166.2 | – | 142.7
318.15 K, a1 = 2.5 | 1171.1 | – | 129.75
318.15 K, a1 = 3 | 1175.2 | – | 113.34
318.15 K, a1 = 3.5 | 1178.8 | – | 106.26
318.15 K, a1 = 5 | 1185.6 | – | 92.66
318.15 K, a1 = 8 | 1192.3 | – | 80.53
318.15 K, a1 = 10 | 1195 | – | 75.26
318.15 K, a1 = 15 | 1195 | – | 75.26
319.2 K, a1 = 2 | – | 46.7 | –
323.15 K, a1 = 1.3 | 1151.1 | – | 152.8
323.15 K, a1 = 1.5 | 1158.9 | – | 126.22
323.15 K, a1 = 2 | 1163 | – | 108.45
323.15 K, a1 = 2.5 | 1167.9 | – | 98.3
323.15 K, a1 = 3 | 1171.8 | – | 85.77
323.15 K, a1 = 3.5 | 1175.3 | – | 80.16
323.15 K, a1 = 5 | 1181.9 | – | 69.53
323.15 K, a1 = 8 | 1188.4 | – | 60.12
323.15 K, a1 = 10 | 1191 | – | 56.1
323.15 K, a1 = 15 | 1191 | – | 56.1
323.5 K, a1 = 2 | – | 46.5 | –
328.15 K, a1 = 1.3 | 1148.2 | – | 118.6
328.15 K, a1 = 1.5 | 1155.8 | – | 97.77
328.15 K, a1 = 2 | 1159.9 | – | 83.99
328.15 K, a1 = 2.5 | 1164.6 | – | 75.93
328.15 K, a1 = 3 | 1168.4 | – | 66.19
328.15 K, a1 = 3.5 | 1171.8 | – | 61.71
328.15 K, a1 = 5 | 1178.3 | – | 53.28
328.15 K, a1 = 8 | 1184.5 | – | 45.88
328.15 K, a1 = 10 | 1186.9 | – | 42.76
328.15 K, a1 = 15 | 1186.9 | – | 42.76
328.6 K, a1 = 2 | – | 46.2 | –
333.15 K, a1 = 1.3 | 1145.3 | – | 93.55
333.15 K, a1 = 1.5 | 1152.7 | – | 76.99
333.15 K, a1 = 2 | 1156.7 | – | 66.16
333.15 K, a1 = 2.5 | 1161.3 | – | 59.67
333.15 K, a1 = 3 | 1165 | – | 52
333.15 K, a1 = 3.5 | 1168.3 | – | 48.38
333.15 K, a1 = 5 | 1174.6 | – | 41.63
333.15 K, a1 = 8 | 1180.5 | – | 35.72
333.15 K, a1 = 10 | 1182.9 | – | 33.26
333.15 K, a1 = 15 | 1182.9 | – | 33.26
333.2 K, a1 = 2 | – | 46 | –
338.1 K, a1 = 2 | – | 45.7 | –
338.15 K, a1 = 1.3 | 1142.4 | – | 74.84
338.15 K, a1 = 1.5 | 1149.7 | – | 61.57
338.15 K, a1 = 2 | 1153.6 | – | 53.08
338.15 K, a1 = 2.5 | 1158 | – | 47.66
338.15 K, a1 = 3 | 1161.6 | – | 41.53
338.15 K, a1 = 3.5 | 1164.8 | – | 38.58
338.15 K, a1 = 5 | 1170.9 | – | 33.1
338.15 K, a1 = 8 | 1176.6 | – | 28.33
338.15 K, a1 = 10 | 1178.8 | – | 26.35
338.15 K, a1 = 15 | 1178.8 | – | 26.35
343.15 K, a1 = 1.3 | 1139.6 | – | 60.71
343.15 K, a1 = 1.5 | 1146.7 | – | 49.92
343.15 K, a1 = 2 | 1150.5 | – | 43.05
343.15 K, a1 = 2.5 | 1154.8 | – | 38.64
343.15 K, a1 = 3 | 1158.2 | – | 33.66
343.15 K, a1 = 3.5 | 1161.3 | – | 31.24
343.15 K, a1 = 5 | 1167.2 | – | 26.74
343.15 K, a1 = 8 | 1172.7 | – | 22.83
343.15 K, a1 = 10 | 1174.7 | – | 21.23
343.15 K, a1 = 15 | 1174.7 | – | 21.23
348.15 K, a1 = 1.3 | 1136.7 | – | 49.84
348.15 K, a1 = 1.5 | 1143.7 | – | 41.01
348.15 K, a1 = 2 | 1147.4 | – | 35.4
348.15 K, a1 = 2.5 | 1151.5 | – | 31.75
348.15 K, a1 = 3 | 1154.9 | – | 27.66
348.15 K, a1 = 3.5 | 1157.8 | – | 25.64
348.15 K, a1 = 5 | 1163.5 | – | 21.91
348.15 K, a1 = 8 | 1168.8 | – | 18.68
348.15 K, a1 = 10 | 1170.7 | – | 17.36
348.15 K, a1 = 15 | 1170.7 | – | 17.36
353.15 K, a1 = 1.3 | 1133.9 | – | 41.4
353.15 K, a1 = 1.5 | 1140.7 | – | 34.08
353.15 K, a1 = 2 | 1144.3 | – | 29.46
353.15 K, a1 = 2.5 | 1148.3 | – | 26.41
353.15 K, a1 = 3 | 1151.5 | – | 23.01
353.15 K, a1 = 3.5 | 1154.2 | – | 21.32
353.15 K, a1 = 5 | 1159.8 | – | 18.2
353.15 K, a1 = 8 | 1164.8 | – | 15.49
353.15 K, a1 = 10 | 1166.7 | – | 14.38
353.15 K, a1 = 15 | 1166.7 | – | 14.38
358.15 K, a1 = 1.3 | 1131.1 | – | 34.75
358.15 K, a1 = 1.5 | 1137.7 | – | 28.64
358.15 K, a1 = 2 | 1141.2 | – | 24.79
358.15 K, a1 = 2.5 | 1145.1 | – | 22.22
358.15 K, a1 = 3 | 1148.1 | – | 19.37
358.15 K, a1 = 3.5 | 1150.9 | – | 17.94
358.15 K, a1 = 5 | 1156.1 | – | 15.29
358.15 K, a1 = 8 | 1160.9 | – | 13.01
358.15 K, a1 = 10 | 1162.7 | – | 12.05
358.15 K, a1 = 15 | 1162.7 | – | 12.05
363.15 K, a1 = 1.3 | 1128.3 | – | 29.44
363.15 K, a1 = 1.5 | 1134.7 | – | 24.31
363.15 K, a1 = 2 | 1138.1 | – | 21.08
363.15 K, a1 = 2.5 | 1141.9 | – | 18.89
363.15 K, a1 = 3 | 1144.7 | – | 16.45
363.15 K, a1 = 3.5 | 1147.4 | – | 15.29
363.15 K, a1 = 5 | 1152.3 | – | 12.99
363.15 K, a1 = 8 | 1157.1 | – | 11.05
363.15 K, a1 = 10 | 1158.6 | – | 10.23
363.15 K, a1 = 15 | 1158.6 | – | 10.23
